Each structure is given as a SMILES string. Values joined by “and” are separate entries in the source; they are usually repeats but may differ in a detail not shown here. Equal entries are not always repeated.

The target of assay [1] is T1, Sterol O-acyltransferase 1 (Rattus norvegicus, UniProt O70536).
T1 sequence (O70536 whole entry): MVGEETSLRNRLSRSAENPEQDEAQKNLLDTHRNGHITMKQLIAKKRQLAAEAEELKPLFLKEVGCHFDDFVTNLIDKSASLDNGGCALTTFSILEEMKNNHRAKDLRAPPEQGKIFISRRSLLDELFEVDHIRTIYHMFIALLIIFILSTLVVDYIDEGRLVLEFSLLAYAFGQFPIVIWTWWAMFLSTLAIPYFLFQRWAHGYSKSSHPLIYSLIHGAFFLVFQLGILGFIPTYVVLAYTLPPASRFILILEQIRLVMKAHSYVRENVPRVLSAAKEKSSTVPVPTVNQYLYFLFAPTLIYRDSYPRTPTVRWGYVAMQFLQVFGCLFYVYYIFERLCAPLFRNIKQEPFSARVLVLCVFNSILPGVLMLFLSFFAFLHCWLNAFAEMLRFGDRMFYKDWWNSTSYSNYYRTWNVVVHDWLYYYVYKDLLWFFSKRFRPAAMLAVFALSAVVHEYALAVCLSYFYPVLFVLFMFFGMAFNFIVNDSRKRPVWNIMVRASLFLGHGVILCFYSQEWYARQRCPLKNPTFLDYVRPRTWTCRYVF
In words: In vitro acyl-coenzyme A:cholesterol acyltransferase inhibition in rat liver microsomes. On the set-up: species or system Microsome.

The species entered for assay [2] is Mus musculus. Description: Inhibition of cholesterol esterification in macrophages (Cholesterol efflux). It is filed as functional.
Assay [3] is described as follows: Percent inhibition of cell viability in murine macrophages. It is filed as functional, Mus musculus. More on the design: concentration or dose not given beside the values.
Assay [4] concerns the target Sterol O-acyltransferase 1 (Mus musculus) (UniProt Q61263). In words: Inhibitory activity against Acyl-coenzyme A:cholesterol acyltransferase in macrophages.

Chain of Sterol O-acyltransferase 1 (Mus musculus) (Q61263 whole entry, looked up): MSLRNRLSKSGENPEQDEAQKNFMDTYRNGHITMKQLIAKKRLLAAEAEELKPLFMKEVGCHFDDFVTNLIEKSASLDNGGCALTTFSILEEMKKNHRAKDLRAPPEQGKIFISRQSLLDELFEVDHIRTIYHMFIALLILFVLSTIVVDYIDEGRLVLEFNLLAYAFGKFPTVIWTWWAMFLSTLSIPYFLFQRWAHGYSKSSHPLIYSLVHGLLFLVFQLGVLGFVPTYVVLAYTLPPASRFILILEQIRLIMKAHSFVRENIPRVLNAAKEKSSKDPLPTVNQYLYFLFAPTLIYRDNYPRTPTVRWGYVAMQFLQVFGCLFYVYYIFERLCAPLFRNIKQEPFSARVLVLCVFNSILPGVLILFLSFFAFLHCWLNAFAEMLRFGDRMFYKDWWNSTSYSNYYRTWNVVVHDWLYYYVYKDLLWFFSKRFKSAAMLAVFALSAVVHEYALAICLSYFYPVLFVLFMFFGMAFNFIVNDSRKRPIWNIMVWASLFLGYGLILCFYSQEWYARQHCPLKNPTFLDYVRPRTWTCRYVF

Consider `CCCCCCCCCOc1cc(-c2ccccc2)c(-c2ccccc2)nn1`, for which, in assay [1], the IC50 is 180 µM.
`CCCCCCCCn1nc(-c2ccccc2)c(-c2ccccc2)cc1=O` had an IC50 in assay [1] of 80 µM.
On the same count and under the same terms, to `O=C(O)CCCCCCCn1nc(-c2ccccc2)c(-c2ccccc2)cc1=O` belongs > 300 µM.
The same measure, in the same setting: the figure for `CCCCCCCn1nc(-c2ccccc2)c(-c2ccccc2)cc1=O` is 86 µM; for `CCCCCCCSc1cc(-c2ccccc2)c(-c2ccccc2)nn1` it is 76 µM.
As for `O=C(O)CCCCCCCSc1cc(-c2ccccc2)c(-c2ccccc2)nn1`, the concentration for half-maximal inhibition (IC50) in assay [1] is > 300 µM.
In the case of `CCCCCCNc1cc(-c2ccccc2)c(-c2ccccc2)nn1`, in assay [1], the IC50 came to 24 µM.
In the case of `CCCn1nc(-c2ccccc2)c(-c2ccccc2)cc1=O`, 230 µM corresponded to half-maximal inhibition in assay [1] (IC50).
Still for that read-out and setting: the figure for `CCCCCCCCC[S+]([O-])c1cc(-c2ccccc2)c(-c2ccccc2)nn1` (stereo unspecified) is 87 µM; for `CCCCCCCCS(=O)(=O)c1cc(-c2ccccc2)c(-c2ccccc2)nn1` it is 36 µM.
`CCCCCCC[S+]([O-])c1cc(-c2ccccc2)c(-c2ccccc2)nn1` (stereo unspecified) displayed an IC50 in assay [1] of 77 µM.
`CCCCCCCCCNc1cc(-c2ccccc2)c(-c2ccccc2)nn1`: the Esterification inhibitory concentration in assay [2] was 14.1 µM and 13.8 µM. In assay [3], the Inhibition was 5.9% and 2.7% and <1%.
For `O=C(O)CCCCCSc1cc(-c2ccccc2)c(-c2ccccc2)nn1`, the IC50 in assay [1] is > 300 µM.
`CCCCn1nc(-c2ccccc2)c(-c2ccccc2)cc1=O` displayed an IC50 in assay [1] of 176 µM.
In assay [1], `O=c1cc(-c2ccccc2)c(-c2ccccc2)nn1C1CCCC1` displayed an IC50 of 119 µM.
Turning to `O=C(O)CCCCCCn1nc(-c2ccccc2)c(-c2ccccc2)cc1=O`, in assay [1], the IC50 is > 300 µM.
In assay [1], `CCCCCn1nc(-c2ccccc2)c(-c2ccccc2)cc1=O` displayed an IC50 of 66 µM.
As to `CCCCCC(=O)Nc1cc(-c2ccccc2)c(-c2ccccc2)nn1`, in assay [1], the IC50 is > 300 µM.
Turning to `O=C(O)CCCCCCSc1cc(-c2ccccc2)c(-c2ccccc2)nn1`, the IC50 in assay [1] is > 300 µM.
As to `CCCCCCCC[S+]([O-])c1cc(-c2ccccc2)c(-c2ccccc2)nn1` (stereo unspecified), the IC50 in assay [1] was found to be 92 µM.
`CCCCCCCCNc1cc(-c2ccccc2)c(-c2ccccc2)nn1`: the Esterification inhibitory concentration in assay [2] was 12.9 µM and 11.5 µM. Also, in assay [3], the Inhibition is 11.5% and 9.9% and 3.7% and 4.8%. Also, the IC50 in assay [1] was 40 µM; in assay [4], 3.2 µM.
As for `O=c1cc(-c2ccccc2)c(-c2ccccc2)nn1C1CCCCC1`, the IC50 in assay [1] is > 300 µM.
The molecule `CCCCCCOc1cc(-c2ccccc2)c(-c2ccccc2)nn1` showed an IC50 in assay [1] of 72 µM.
The same measure, in the same setting: the figure for `CCCCCC[S+]([O-])c1cc(-c2ccccc2)c(-c2ccccc2)nn1` (stereo unspecified) is 75 µM; for `CCCCCCCCOc1cc(-c2ccccc2)c(-c2ccccc2)nn1` it is 104 µM; for `CCCCCCSc1cc(-c2ccccc2)c(-c2ccccc2)nn1` it is 62 µM.
As for `CCCCCCCS(=O)(=O)c1cc(-c2ccccc2)c(-c2ccccc2)nn1`, the IC50 in assay [1] was found to be 49 µM.
On to `CCCCCCCOc1cc(-c2ccccc2)c(-c2ccccc2)nn1`, for which the Esterification inhibitory concentration in assay [2] was 12.6 µM and 11.8 µM. Moreover, in assay [3], the Inhibition is <1%. In addition, the results for the IC50 in assay [1] and in assay [4] were 58 µM and 5.1 µM, respectively.
Molecule `CC(C)n1nc(-c2ccccc2)c(-c2ccccc2)cc1=O` returned an IC50 in assay [1] of 152 µM.
In assay [1], `CCCCCCS(=O)(=O)c1cc(-c2ccccc2)c(-c2ccccc2)nn1` came in with an IC50 of 60 µM.
In assay [1], `CCCCCOc1cc(-c2ccccc2)c(-c2ccccc2)nn1` had an IC50 of 73 µM.
Still for that read-out and setting: to `O=C(O)CCCCCCCCSc1cc(-c2ccccc2)c(-c2ccccc2)nn1` belongs > 300 µM; to `CCCCCCn1nc(-c2ccccc2)c(-c2ccccc2)c(C)c1=O`, 56 µM; to `CCCCCCCCCSc1cc(-c2ccccc2)c(-c2ccccc2)nn1`, 116 µM.
In assay [1], `CCCCCCCCCn1nc(-c2ccccc2)c(-c2ccccc2)cc1=O` came in with an IC50 of 85 µM.
On the same count and under the same terms, to `CCCCCCn1nc(-c2ccccc2)c(-c2ccccc2)cc1=O` belongs 57 µM; to `CCCCCCCCSc1cc(-c2ccccc2)c(-c2ccccc2)nn1`, 130 µM.
As to `CCCCCCCNc1cc(-c2ccccc2)c(-c2ccccc2)nn1`, in assay [1], the IC50 turned out to be 55 µM.
As to `CCCCCCCCCS(=O)(=O)c1cc(-c2ccccc2)c(-c2ccccc2)nn1`, 76 µM corresponded to half-maximal inhibition in assay [1] (IC50).

The values above are taken from ChEMBL document CHEMBL1134297, “5,6-Diphenylpyridazine derivatives as acyl-CoA:cholesterol acyltransferase inhibitors” (J Med Chem, 2001).
